Experiment [1] concerns IL-17 production by CD4 T cells. The experiment in a line: Human Th17 assay (IL-17 production by CD4 T cells under Th17 differentiation). It counts as cell-based. As to conditions: human CD4+ T cells, IL-17 after 3 days, read-out: Human Th17 Assay, IC50 μM. From the text:
The human Th17 assay tests the effect of RORγt modulatory compounds on IL-17 production by CD4 T cells under conditions which favor Th17 differentiation.
Total CD4^+ T cells were isolated from the peripheral blood mononuclear cells (PBMC) of healthy donors using a CD4^+ T cell isolation kit II, following the manufacturer's instructions (Miltenyi Biotec). Cells were resuspended in a medium of RPMI-1640 supplemented with 10% fetal bovine serum, penicillin, streptomycin, glutamate, and β-mercaptoethanol and were added to 96-well plates at 1.5×10^5 per 100 μL per well. 50 μL of compound at titrated concentrations in DMSO were added into each well at final DMSO concentration at 0.2%. Cells were incubated for 1 hour, then 50 μL of Th17 cell differentiation medium was added to each well. The final concentrations of antibodies and cytokines (R&D Systems) in differentiation medium were: 3×10^6/mL anti-CD3/CD28 beads (prepared using human T cell activation/expansion kit, Miltenyi Biotec), 10 μg/mL anti-IL4, 10 μg/mL anti-IFNγ, 10 ng/mL IL1β, 10 ng/mL IL23, 50 ng/mL IL6, 3 ng/mL TGFβ and 20 U/mL IL2. Cells were cultured at 37° C. and 5% CO2 for 3 days. Supernatants were collected and the accumulated IL-17 in culture was measured by using MULTI-SPOT® Cytokine Plate following manufacture's instruction (Meso Scale Discovery). The plate was read using Sector Imager 6000, and IL-17 concentration was extrapolated from the standard curve. The IC50s were determined by GraphPad.

The next experiment concerns the target human RORγt LBD (Homo sapiens (Human), UniProt P51449). The experiment is described as follows: RORγt reporter assay (GAL4-RORγt LBD luciferase in HEK293T cells). It counts as cell-based. The conditions noted are these: for RORγt reporter Assay, % inhibition @ 6 μM / IC50: HEK293T cells; for IC50: 24 hours compound treatment; for inhibition at 6 µM: HEK-293T, read-out: RORγt reporter Assay, % inhibition @ 6 μM, HEK293T cells, 6 μM. The essentials:
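HEK293T cells transiently co-transfected with GAL4-DBD–wild-type human RORγt LBD (pBIND) and GAL4-responsive firefly luciferase reporter (pGL4.31); renilla luciferase from pBIND normalises transfection/viability. Cells in phenol-red-free DMEM, 5% lipid-reduced FCS, treated with compound 24 h. Firefly/renilla ratio plotted against compound concentration.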
A general note: A reporter such as luciferase makes a cellular process visible.

For experiment [2], the target named is human RORγt ligand binding domain (RORγt LBD) (Homo sapiens (Human), UniProt P51449). The experiment in a line: RORγt ThermoFluor assay (thermal shift binding affinity). As to conditions: estimated from thermal shift. The essentials: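 Thermal shift used 0.065 mg/mL RORγt LBD with 60 μM 1,8-ANS in 100 mM Hepes pH 7.0, 10 mM NaCl, 2.5 mM GSH and 0.002% Tween-20, heated at 1 °C/min. Fluorescence was excited at 380–400 nm and emission read at 500 nm.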

Each structure is given as a SMILES string. Where two headings read alike, the source gives them in different places.

The values below come from patent US9290476B2, “Methylene linked quinolinyl modulators of RORγt” (Janssen Pharmaceutica NV, priority 2012, dated 2016).

human RORγt ligand binding domain (RORγt LBD), sequence (P51449 other isoform, or with tags, fused parts or gaps): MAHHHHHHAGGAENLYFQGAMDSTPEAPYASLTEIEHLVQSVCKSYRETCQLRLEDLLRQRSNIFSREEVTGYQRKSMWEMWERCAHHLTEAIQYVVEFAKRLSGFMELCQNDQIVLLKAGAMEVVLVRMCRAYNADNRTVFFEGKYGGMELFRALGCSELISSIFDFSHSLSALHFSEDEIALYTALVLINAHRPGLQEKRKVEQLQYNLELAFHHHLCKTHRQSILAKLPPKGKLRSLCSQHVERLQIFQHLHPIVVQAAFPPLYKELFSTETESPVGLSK
human RORγt LBD, sequence (P51449 258-518): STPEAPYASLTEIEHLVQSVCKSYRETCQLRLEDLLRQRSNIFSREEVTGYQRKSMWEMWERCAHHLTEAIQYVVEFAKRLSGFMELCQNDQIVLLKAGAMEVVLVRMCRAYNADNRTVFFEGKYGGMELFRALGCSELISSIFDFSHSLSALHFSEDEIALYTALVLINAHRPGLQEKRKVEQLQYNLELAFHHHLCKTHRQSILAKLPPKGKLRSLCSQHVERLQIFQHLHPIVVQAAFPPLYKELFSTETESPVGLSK

The IC50 is the concentration that inhibits the measured activity by half. The Kd is the concentration at which binding is half-saturated. With `COc1nc2ccc(C(O)(c3ccc(C(F)(F)F)nc3)c3cncn3C)cc2c(Cl)c1Cc1cc2ccccc2s1` (single isomer, unassigned) [Example 37C, (3-(benzo[b]thiophen-2-ylmethyl)-4-chloro-2-methoxyquinolin-6-yl)(1-methyl-1H-imidazol-5-yl)(6-(trifluoromethyl)pyridin-3-yl)methanol], the IC50 in experiment [1] was 0.15 µM. On human RORγt LBD, the “RORγt reporter Assay, % inhibition @ 6 μM” value worked out at 102% and inhibition was half-maximal at 0.11 µM (IC50). Also, the Kd in experiment [2] is 0.0035 µM.
For the molecule `COc1nc2ccc(C(O)(c3ccc(F)cc3)c3cncn3C)cc2c(Cl)c1Cc1ccc(S(C)(=O)=O)cc1` (single isomer, unassigned) [Example 54C, (4-chloro-2-methoxy-3-(4-(methylsulfonyl)benzyl)quinolin-6-yl)(4-fluorophenyl)(1-methyl-1H-imidazol-5-yl)methanol], the IC50 in experiment [1] (Homo sapiens, CD4+ T, 72 h) was determined as 0.057 µM. Besides, on human RORγt LBD, the “RORγt reporter Assay, % inhibition @ 6 μM” value is on record as 93% and inhibition was half-maximal at 0.098 µM (IC50). In addition, the Kd in experiment [2] is 0.023 µM.
The term inhibition denotes the drop in the measured response relative to a control, in per cent. As to `COc1nc2c(F)cc(C(O)(c3ccc(C(F)(F)F)nc3)c3cncn3C)cc2c(Cl)c1Cc1ccc(-n2cccn2)cc1` (single isomer, unassigned) [Example 58B, (3-(4-(1H-pyrazol-1-yl)benzyl)-4-chloro-8-fluoro-2-methoxyquinolin-6-yl)(1-methyl-1H-imidazol-5-yl)(6-(trifluoromethyl)pyridin-3-yl)methanol], the IC50 in experiment [1] (Homo sapiens, CD4+ T, 72 h) stood at 0.1 µM; against human RORγt LBD, 0.055 µM. In addition, the inhibition at 6 µM at human RORγt LBD worked out at 103%. Moreover, the Kd in experiment [2] is 0.014 µM.
For the molecule `COc1nc2c(OC)cc(C(O)(c3ccc(C(F)(F)F)nc3)c3cncn3C)cc2c(Cl)c1Cc1ccc(-n2cccn2)cc1` (single isomer, unassigned) [Example 59B, (3-(4-(1H-pyrazol-1-yl)benzyl)-4-chloro-2,8-dimethoxyquinolin-6-yl)(1-methyl-1H-imidazol-5-yl)(6-(trifluoromethyl)pyridin-3-yl)methanol], the IC50 in experiment [1] (Homo sapiens, CD4+ T, 72 h) was determined as 0.098 µM. For the same molecule, on human RORγt LBD, half-maximal inhibition (IC50) was put at 0.14 µM and the inhibition at 6 µM was found to be 106%. For the same molecule, the Kd in experiment [2] was 0.0044 µM.
Turning to `Cc1cc(C(O)(c2ccc(C(F)(F)F)nc2)c2cncn2C)cc2c(C#N)c(Cc3ccc(-n4cccn4)cc3)c(C#N)nc12` (single isomer, unassigned) [Example 65B, 3-(4-(1H-pyrazol-1-yl)benzyl)-6-(hydroxy(1-methyl-1H-imidazol-5-yl)(6-(trifluoromethyl)pyridin-3-yl)methyl)-8-methylquinoline-2,4-dicarbonitrile], the IC50 in experiment [1] worked out at 0.22 µM; at human RORγt LBD, 0.13 µM. At human RORγt LBD, the inhibition at 6 µM came to 101%. Besides, the Kd in experiment [2] was 0.14 µM.
As to `Cc1cc(C(O)(c2ccc(C(F)(F)F)nc2)c2cncn2C)cc2c(C#N)c(Cc3ccc(-n4cccn4)cc3)c(C#N)nc12` (single isomer, unassigned) [Example 65C, 3-(4-(1H-pyrazol-1-yl)benzyl)-6-(hydroxy(1-methyl-1H-imidazol-5-yl)(6-(trifluoromethyl)pyridin-3-yl)methyl)-8-methylquinoline-2,4-dicarbonitrile], the values for the IC50 (in experiment [1]; on human RORγt LBD) were 0.045 µM and 0.046 µM, respectively. The “RORγt reporter Assay, % inhibition @ 6 μM” value on human RORγt LBD is on record as 100%. The Kd in experiment [2] was 0.0042 µM.
With `Cc1cc(C(O)(c2ccc(C#N)cc2)c2cncn2C)cc2c(C#N)c(Cc3ccc(-n4cccn4)cc3)c(C#N)nc12` (single isomer, unassigned) [Example 66B, 3-(4-(1H-pyrazol-1-yl)benzyl)-6-((4-cyanophenyl)(hydroxy)(1-methyl-1H-imidazol-5-yl)methyl)-8-methylquinoline-2,4-dicarbonitrile], the IC50 in experiment [1] amounted to 1.1 µM. At human RORγt LBD, the IC50 amounted to 0.42 µM and the inhibition at 6 µM was found to be 95%. In addition, the Kd in experiment [2] is 0.27 µM.
Take `Cc1cc(C(O)(c2ccc(C#N)cc2)c2cncn2C)cc2c(C#N)c(Cc3ccc(-n4cccn4)cc3)c(C#N)nc12` (single isomer, unassigned) [Example 66C, 3-(4-(1H-pyrazol-1-yl)benzyl)-6-((4-cyanophenyl)(hydroxy)(1-methyl-1H-imidazol-5-yl)methyl)-8-methylquinoline-2,4-dicarbonitrile]: the half-maximal inhibitory concentration (IC50) in experiment [1] is 0.04 µM; against human RORγt LBD it was 0.029 µM. Besides, the “RORγt reporter Assay, % inhibition @ 6 μM” value at human RORγt LBD came out at 101%. The Kd in experiment [2] is 0.0079 µM.
For `CON(C)c1nc2ccc(C(O)(c3ccc(C(F)(F)F)nc3)c3cncn3C)cc2c(Cl)c1Cc1ccc(-n2cccn2)cc1` (single isomer, unassigned) [Example 67B, (3-(4-(1H-pyrazol-1-yl)benzyl)-4-chloro-2-(methoxy(methyl)amino)quinolin-6-yl)(1-methyl-1H-imidazol-5-yl)(6-(trifluoromethyl)pyridin-3-yl)methanol], the IC50 in experiment [1] amounted to 0.01 µM; against human RORγt LBD, 0.035 µM. Besides, at human RORγt LBD, the inhibition at 6 µM turned out to be 101%. Also, the Kd in experiment [2] is 0.0063 µM.
Regarding `CON(C)c1nc2ccc(C(O)(c3ccc(C(F)(F)F)nc3)c3cncn3C)cc2c(Cl)c1Cc1ccc(-n2cccn2)cc1` (single isomer, unassigned) [Example 67C, (3-(4-(1H-pyrazol-1-yl)benzyl)-4-chloro-2-(methoxy(methyl)amino)quinolin-6-yl)(1-methyl-1H-imidazol-5-yl)(6-(trifluoromethyl)pyridin-3-yl)methanol], the IC50 in experiment [1] came out at 0.1 µM. On human RORγt LBD, the “RORγt reporter Assay, % inhibition @ 6 μM” value is on record as 101% and the IC50 worked out at 0.12 µM. For the same molecule, the Kd in experiment [2] was 0.057 µM.
Take `Cn1cncc1C(O)(c1ccc(C(F)(F)F)nc1)c1ccc2nc(N3CCC3)c(Cc3ccc(-n4cccn4)cc3)c(Cl)c2c1` (single isomer, unassigned) [Example 68B, (3-(4-(1H-pyrazol-1-yl)benzyl)-2-(azetidin-1-yl)-4-chloroquinolin-6-yl)(1-methyl-1H-imidazol-5-yl)(6-(trifluoromethyl)pyridin-3-yl)methanol]: the concentration for half-maximal inhibition (IC50) in experiment [1] turned out to be 0.01 µM. For the same molecule, at human RORγt LBD, the IC50 was around 0.05 µM and the inhibition at 6 µM turned out to be 96%. The Kd in experiment [2] was 0.0021 µM.
For the molecule `Cn1cncc1C(O)(c1ccc(C(F)(F)F)nc1)c1ccc2nc(N3CCC3)c(Cc3ccc(-n4cccn4)cc3)c(Cl)c2c1` (single isomer, unassigned) [Example 68C, (3-(4-(1H-pyrazol-1-yl)benzyl)-2-(azetidin-1-yl)-4-chloroquinolin-6-yl)(1-methyl-1H-imidazol-5-yl)(6-(trifluoromethyl)pyridin-3-yl)methanol], the IC50 in experiment [1] was found to be 0.2 µM; against human RORγt LBD it was 0.21 µM. In addition, on human RORγt LBD, the “RORγt reporter Assay, % inhibition @ 6 μM” value stood at 100%. For the same molecule, the Kd in experiment [2] is 0.03 µM.
Turning to `Cn1cncc1C(O)(c1ccc(Cl)cc1)c1ccc2nc(C#N)c(Cc3ccc(-n4cccn4)cc3)c(C#N)c2c1` (single isomer, unassigned) [Example 71B, 3-(4-(1H-Pyrazol-1-yl)benzyl)-6-((4-chlorophenyl)(hydroxy)(1-methyl-1H-imidazol-5-yl)methyl)quinoline-2,4-dicarbonitrile], the IC50 in experiment [1] is 0.011 µM. At human RORγt LBD, the IC50 came to 0.011 µM and the inhibition at 6 µM amounted to 105%. Besides, the Kd in experiment [2] is 0.0016 µM.
With `Cn1cncc1C(O)(c1ccc(Cl)cc1)c1ccc2nc(C#N)c(Cc3ccc(-n4cccn4)cc3)c(C#N)c2c1` (single isomer, unassigned) [Example 71C, 3-(4-(1H-Pyrazol-1-yl)benzyl)-6-((4-chlorophenyl)(hydroxy)(1-methyl-1H-imidazol-5-yl)methyl)quinoline-2,4-dicarbonitrile], the IC50 in experiment [1] amounted to 0.3 µM. Moreover, at human RORγt LBD, the “RORγt reporter Assay, % inhibition @ 6 μM” value amounted to 103% and it took 0.26 µM to reach half-maximal inhibition (IC50). The Kd in experiment [2] is 0.13 µM.
Turning to `COc1nc2ccc(C(O)(c3ccc(C(F)(F)F)nc3)c3cncn3C)cc2c(C#N)c1Cc1ccc(-n2cccn2)cc1` (single isomer, unassigned) [Example 73B, 3-(4-(1H-Pyrazol-1-yl)benzyl)-6-(hydroxy(1-methyl-1H-imidazol-5-yl)(6-(trifluoromethyl)pyridin-3-yl)methyl)-2-methoxyquinoline-4-carbonitrile], in experiment [1], the IC50 was found to be 0.02 µM. Also, on human RORγt LBD, the IC50 was found to be 0.046 µM and the inhibition at 6 µM was determined as 97%. Further, the Kd in experiment [2] was 0.0045 µM.
